The values below come from ChEMBL document CHEMBL1201862, “PubChem BioAssay data set” (2004).

Common to all, as to assay: NCI-60 cell line screen, 48 h
The test system of assay [1] is MDA-MB-435.
In assay [2] the test system is SN12C.
For assay [3], the system named is PC-3.
Assay [4] concerns UACC-62.
For assay [5], the system named is CCRF-CEM.
Assay [6] has as its system BT-549.
Assay [7] deals with MCF7.
Assay [8] deals with HL-60.
Assay [9] relates to MDA-N.
The test system of assay [10] is MOLT-4.
For assay [11], the system named is KM12.
In assay [12] the test system is MDA-MB-231.
Assay [13] concerns SF-539.
Assay [14] deals with COLO 205.
For assay [15], the system named is T47D.
The subject of assay [16] is 786-0.
Assay [17] deals with IGROV-1.
The test system of assay [18] is Hs-578T.

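Method: 48-hour compound exposure of cells in 96-well plates, five concentrations, linear interpolation of endpoints. GI50 is the concentration that inhibits growth by half.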 Calls of active or inactive are those of the source. No stated cut-off is given here; in the data, active = GI50 up to about 1.1 µM and inactive = higher. Where only a bound is given, the exact number is not on record here.

As to `CN(C)CCCn1c(-c2ccc(Br)cc2)cs/c1=N\c1ccccc1`, the GI50 in [1] is 18.7 µM (inactive); in [2], 18.5 µM (inactive); in assay [3], 11.2 µM (inactive); in assay [4], 13.7 µM (inactive); in assay [5] it was 28.8 µM (inactive); in [6] it was 15.4 µM (inactive). Further, the GI50 in [7] is 16 µM (inactive); in [8], 1.4 µM (inactive); in assay [9] it was 13.8 µM (inactive); in assay [10], 15.4 µM (inactive); in [11], 13 µM (inactive); in [12] it was 15.1 µM (inactive). Further, in [13], the GI50 is 14 µM (inactive).

As to `N#Cc1c(-c2ccccc2)c(CN2CCCCC2)c(=O)n2c1[nH]c1ccccc12`, the GI50 in assay [1] is 41.4 µM (inactive); in assay [2], 25.1 µM (inactive); in assay [3], 34.9 µM (inactive); in [14], 25.6 µM (inactive); in [5] it was 25.9 µM (inactive); in [6], 35 µM (inactive). Moreover, the GI50 in assay [15] is 40.9 µM (inactive); in [7], 13.2 µM (inactive); in [9], 27.5 µM (inactive); in [10], 0.0764 µM (active); in assay [11], 30.1 µM (inactive); in assay [16] it was 27.9 µM (inactive). The results for the GI50 in [17], in assay [12] and in assay [13] were 19.5 µM (inactive), 43.5 µM (inactive) and 38.1 µM (inactive), respectively.

For `CCOC(=O)c1csc(NC(=O)CN2CCCC2)n1`, the GI50 in assay [1], in [3], in assay [14], in [4], in [5] and in [18] was > 100 µM (inactive) in each case. The GI50 in assay [15], in assay [7], in assay [8], in assay [9], in assay [10] and in assay [11] was > 100 µM (inactive) in each case. Moreover, the GI50 in assay [17], in [12] and in [13] was > 100 µM (inactive) each time.

On to `O=C1OCC=C1COC1OC(CO)C(O)C(O)C1O` (stereo not drawn), for which the GI50 is > 100 µM (inactive) in assay [1]; > 100 µM (inactive) in assay [2]; > 100 µM (inactive) in assay [3]; > 100 µM (inactive) in assay [14]; 30.5 µM (inactive) in assay [5]; > 100 µM (inactive) in assay [18]. The GI50 in [15] was > 100 µM (inactive); in assay [7] it was > 100 µM (inactive); in [8] it was 73.6 µM (inactive); in assay [9] it was > 100 µM (inactive); in assay [10], > 100 µM (inactive); in [11], > 100 µM (inactive). Also, the GI50 in assay [16], in assay [17], in assay [12] and in assay [13] was > 100 µM (inactive) in each case.

As for `CN(C)c1cccc2c1C(=O)C=CC21CCc2ccc(N(C)C)c3c(N(C)C)ccc1c23` (stereo not drawn), the GI50 was 10.3 µM (inactive) in assay [1]; 12.2 µM (inactive) in assay [2]; 11.6 µM (inactive) in assay [3]; 15.1 µM (inactive) in assay [14]; 12.9 µM (inactive) in assay [4]; 6.41 µM (inactive) in assay [5]. Moreover, the GI50 in assay [18] is 17.4 µM (inactive); in assay [15] it was 66.4 µM (inactive); in assay [7], 11.7 µM (inactive); in [8], 5.01 µM (inactive); in assay [9] it was 11.2 µM (inactive); in [10], 12 µM (inactive). In addition, the GI50 in assay [11] was 14.8 µM (inactive); in assay [16], 12.7 µM (inactive); in assay [17] it was 13.4 µM (inactive); in [12], 13.6 µM (inactive); in assay [13], 16.3 µM (inactive).

On to `CCOC(O)C(F)(F)F` (stereo not drawn), for which the GI50 in [1], in assay [2], in assay [3], in assay [14], in assay [5] and in assay [18] was > 100 µM (inactive) throughout. Further, the GI50 in assay [15], in assay [7], in assay [8], in assay [9], in assay [10] and in [11] was > 100 µM (inactive) in each case. Also, in [12], the GI50 is > 100 µM (inactive).

Take `CCOC(=O)c1csc(NC(=O)CCN2CCN(C)CC2)n1`: the GI50 in assay [1] is > 100 µM (inactive); in assay [3], > 100 µM (inactive); in [14], > 100 µM (inactive); in assay [4] it was > 100 µM (inactive); in assay [5], 54.8 µM (inactive); in assay [18], 64.6 µM (inactive). Also, the GI50 in assay [15] was > 100 µM (inactive); in [7] it was 89.3 µM (inactive); in assay [8], 75.5 µM (inactive); in assay [9] it was > 100 µM (inactive); in [10], 65.5 µM (inactive); in [11] it was > 100 µM (inactive). Moreover, the GI50 in [12] and in assay [13] was > 100 µM (inactive) in each case.

As for `O=C1CC2(CCC(O)(c3ccc4ccccc4c3)C(C(=O)c3ccc4ccccc4c3)C2)C(=O)c2ccccc2N1` (stereo not drawn), the GI50 in assay [1] is > 100 µM (inactive); in [2] it was > 100 µM (inactive); in [3], 4.27 µM (inactive); in assay [14], > 100 µM (inactive); in [4] it was > 100 µM (inactive); in assay [5], > 100 µM (inactive). For the same compound, the GI50 in assay [6] was > 100 µM (inactive); in assay [18], > 100 µM (inactive); in assay [15] it was 2.13 µM (inactive); in [7], 7.59 µM (inactive); in assay [8], > 100 µM (inactive); in assay [10], 8.93 µM (inactive). In addition, the GI50 in assay [17], in [12] and in assay [13] was > 100 µM (inactive) each time.

With `C[N+]1(C)CN(c2ccccc2)C2(CCN(CCCC(=O)c3cccs3)CC2)C1=O`, the GI50 in assay [1] was > 100 µM (inactive); in assay [2], > 100 µM (inactive); in [3], > 100 µM (inactive); in assay [14], 48 µM (inactive); in [4], > 100 µM (inactive); in assay [5], 68.4 µM (inactive). Also, the GI50 in assay [18] was 53.7 µM (inactive); in assay [15] it was > 100 µM (inactive); in assay [7], 53.8 µM (inactive); in assay [8], > 100 µM (inactive); in assay [9], > 100 µM (inactive); in assay [10], 71.6 µM (inactive). Also, the GI50 was > 100 µM (inactive) in assay [11]; > 100 µM (inactive) in assay [16]; 68.1 µM (inactive) in [17]; 72.6 µM (inactive) in assay [12]; > 100 µM (inactive) in [13].

On to `O=C1c2cc3c(cc2CC12Cc1ccc4c(c1C2=O)CCC4)CCCC3` (stereo not drawn), for which the GI50 in assay [1] was 76.4 µM (inactive); in [3], > 100 µM (inactive); in assay [5] it was > 100 µM (inactive); in assay [18], > 100 µM (inactive); in assay [15], > 100 µM (inactive); in [7], > 100 µM (inactive). In addition, the GI50 in assay [8], in [9], in [10], in [16], in assay [17] and in assay [12] was > 100 µM (inactive) throughout. Further, the GI50 in assay [13] was > 100 µM (inactive).
